Laboratory results as given in publication PMC4084896 (PLoS ONE, 2014).

Legend:
[1] = biological target: T1, aryl hydrocarbon receptor AhR (Homo sapiens, UniProt P35869); assay: AhR gene reporter assay in AZ-AHR cells, antagonist mode (TCDD 5 nM); type: cell-based; settings: 24 h, in the presence of TCDD 5 nM
T1 construct: endogenous in cells; host or cells: AZ-AHR (stably transfected reporter line derived from HepG2)
T1 sequence (P35869 11-848): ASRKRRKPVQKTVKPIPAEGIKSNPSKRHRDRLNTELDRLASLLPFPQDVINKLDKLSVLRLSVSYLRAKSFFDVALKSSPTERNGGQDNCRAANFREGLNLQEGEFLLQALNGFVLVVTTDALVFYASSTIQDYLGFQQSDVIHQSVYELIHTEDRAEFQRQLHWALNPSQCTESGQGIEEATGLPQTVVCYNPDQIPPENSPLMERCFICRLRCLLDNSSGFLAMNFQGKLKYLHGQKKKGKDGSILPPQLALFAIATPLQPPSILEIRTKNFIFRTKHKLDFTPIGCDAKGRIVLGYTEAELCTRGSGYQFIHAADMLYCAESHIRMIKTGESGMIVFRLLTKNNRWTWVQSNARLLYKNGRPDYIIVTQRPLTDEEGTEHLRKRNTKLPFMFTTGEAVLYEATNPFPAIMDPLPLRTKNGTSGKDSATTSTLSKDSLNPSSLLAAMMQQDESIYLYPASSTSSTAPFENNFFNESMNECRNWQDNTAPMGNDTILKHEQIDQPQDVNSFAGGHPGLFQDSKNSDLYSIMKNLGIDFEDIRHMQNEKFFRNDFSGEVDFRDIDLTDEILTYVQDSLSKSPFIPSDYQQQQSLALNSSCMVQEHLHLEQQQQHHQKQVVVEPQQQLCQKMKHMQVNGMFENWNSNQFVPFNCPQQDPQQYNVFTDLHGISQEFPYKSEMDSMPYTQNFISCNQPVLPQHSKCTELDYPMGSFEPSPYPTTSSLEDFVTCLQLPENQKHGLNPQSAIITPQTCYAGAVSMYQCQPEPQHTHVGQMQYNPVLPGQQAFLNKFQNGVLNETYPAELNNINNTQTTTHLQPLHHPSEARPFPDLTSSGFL
Text: A stably transfected gene reporter cell line AZ-AHR, derived from human hepatoma HepG2 cells transfected with a construct containing several AhR binding sites upstream of a luciferase reporter gene, was used for assessment of AhR transcriptional activity. A stably transfected gene reporter cell line AZ-GR, derived from human cervix carcinoma HeLa cells transfected with a construct containing several GR response elements upstream of a luciferase reporter gene, was used for assessment of GR transcriptional activity. Cells were incubated for 24 h with tested compounds and/or vehicle (DMSO; 0.1% v/v), in the presence or absence of TCDD (5 nM; AZ-AHR cells) or DEX (100 nM; AZ-GR cells). After the treatments, cells were lysed and luciferase activity was measured. In parallel, cell viability was determined by conventional MTT test.
Gene reporter assays were performed in two different experimental layouts. In agonist mode, cells were treated with increasing concentrations of tested compounds, and the half-maximal effective concentrations (EC50) were calculated.

AhR = biological target: T2, AhR (Mus musculus, UniProt P30561); assay: EMSA with nuclear extracts from Hepa-1c1c7 cells (AhR-ARNT-DRE complex); type: cell-based; settings: Hepa-1c1c7 nuclear extracts, 50 µM, 2 h
T2 construct: endogenous in cells; host or cells: mouse hepatoma Hepa-1c1c7 cells (living cells treated 2 h, then nuclear extracts made)
T2 sequence (P30561 10-805 limits assumed): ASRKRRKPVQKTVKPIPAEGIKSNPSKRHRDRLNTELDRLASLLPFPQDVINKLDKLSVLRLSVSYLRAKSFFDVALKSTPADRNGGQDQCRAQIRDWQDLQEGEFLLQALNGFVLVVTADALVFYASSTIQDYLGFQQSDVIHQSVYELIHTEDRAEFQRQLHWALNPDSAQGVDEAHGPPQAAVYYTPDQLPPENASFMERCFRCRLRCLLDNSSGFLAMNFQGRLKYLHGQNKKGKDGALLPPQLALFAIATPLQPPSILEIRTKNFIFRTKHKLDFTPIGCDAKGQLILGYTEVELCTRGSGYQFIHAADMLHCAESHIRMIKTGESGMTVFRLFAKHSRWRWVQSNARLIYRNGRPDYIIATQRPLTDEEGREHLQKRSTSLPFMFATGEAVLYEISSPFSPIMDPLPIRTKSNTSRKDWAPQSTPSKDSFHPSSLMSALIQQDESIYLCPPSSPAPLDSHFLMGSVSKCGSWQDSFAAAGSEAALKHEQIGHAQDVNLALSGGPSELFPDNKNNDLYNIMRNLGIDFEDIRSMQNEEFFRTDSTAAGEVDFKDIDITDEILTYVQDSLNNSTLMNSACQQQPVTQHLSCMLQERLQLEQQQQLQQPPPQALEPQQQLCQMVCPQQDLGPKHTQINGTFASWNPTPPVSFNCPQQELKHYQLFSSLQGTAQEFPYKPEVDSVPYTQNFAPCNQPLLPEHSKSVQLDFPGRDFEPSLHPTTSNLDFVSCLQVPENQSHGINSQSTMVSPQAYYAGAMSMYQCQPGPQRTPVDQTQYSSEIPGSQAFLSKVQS
T2 sequence (P53762 whole entry partner): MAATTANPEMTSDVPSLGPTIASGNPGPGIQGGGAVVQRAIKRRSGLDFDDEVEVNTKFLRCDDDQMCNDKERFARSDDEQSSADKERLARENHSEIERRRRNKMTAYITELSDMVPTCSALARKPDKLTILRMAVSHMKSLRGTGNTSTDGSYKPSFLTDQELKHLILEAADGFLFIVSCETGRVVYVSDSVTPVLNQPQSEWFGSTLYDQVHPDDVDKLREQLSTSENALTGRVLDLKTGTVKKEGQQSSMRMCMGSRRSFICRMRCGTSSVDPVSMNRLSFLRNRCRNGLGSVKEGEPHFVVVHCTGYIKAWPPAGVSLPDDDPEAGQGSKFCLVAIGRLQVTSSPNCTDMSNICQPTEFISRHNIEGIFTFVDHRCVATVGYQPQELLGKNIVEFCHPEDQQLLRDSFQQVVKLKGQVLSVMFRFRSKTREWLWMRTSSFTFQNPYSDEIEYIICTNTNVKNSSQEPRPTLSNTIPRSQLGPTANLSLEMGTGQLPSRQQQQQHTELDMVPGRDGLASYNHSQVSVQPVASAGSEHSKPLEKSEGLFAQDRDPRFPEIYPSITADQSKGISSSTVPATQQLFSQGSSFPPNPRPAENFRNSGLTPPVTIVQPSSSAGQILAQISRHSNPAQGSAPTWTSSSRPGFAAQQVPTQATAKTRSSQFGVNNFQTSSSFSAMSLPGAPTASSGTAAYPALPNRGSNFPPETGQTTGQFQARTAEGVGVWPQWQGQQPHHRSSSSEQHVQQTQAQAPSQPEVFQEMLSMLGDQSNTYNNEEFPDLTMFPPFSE
Procedure: Electrophoretic mobility shift assay was performed in guinea pig cytosol and nuclear extract from mouse hepatoma cells. Hepa-1c1c7 cells were incubated for 2 h with tested compounds. Nuclear extracts procedure and EMSA analysis was performed as previously described (Soshilov & Denison; 2014). Guinea pig hepatic cytosol (8 mg/mL in HEDG) was incubated for 2 h in a room temperature water bath with tested compounds. An aliquot of the reaction was mixed with poly[dI•dC] and [^32P]-DRE (100.000 cpm), and AHR:DRE:[^32P]DRE complexes were resolved by gel retardation analysis, visualized by autoradiography and quantified by phosphorimager analysis (FujiFilm) of the dried gels.
We carried out the electrophoretic mobility shift assay (EMSA) to reveal whether effects of KET on AhR-CYP1A pathway involve transformation of AhR to DNA binding form, and whether these effects are enantiospecific. For this purpose, EMSA was performed in two experimental systems: (i) Hepatic guinea pig cytosol was treated for 2 hours with DMSO, 20 nM TCDD, (+)-KET, (−)-KET and commercial rac-KET (from Sigma) at 10 µM, 30 µM and 50 µM. All forms of KET transformed AhR to DNA binding form, but the activation was very weak and not statistically above background. There was a slightly stronger effect of (+)-KET and rac-KET as compared to (−)-KET, but the difference was not significant (Figure 4A). (ii) Since we obtained only weak signals in guinea pig liver cytosols, we also analyzed nuclear extracts from mouse hepatoma Hepa-1c1c7 cells treated for 2 hours with DMSO, TCDD (10 nM), (+)-KET (50 µM), (−)-KET (50 µM), commercial rac-KET (Sigma; 50 µM) or an equimolar mix of (+)/(−) enantiomers (50 µM total). […] The effects of (−)-KET were slightly stronger as compared to (+)-KET. […] In addition, we observed formation of the second band with lower molecular weight than AhR-ARNT-DRE, by purified KET enantiomers but not by TCDD and commercial KET.

For `CC(=O)N1CCN(c2ccc(OCC3COC(Cn4ccnc4)(c4ccc(Cl)cc4Cl)O3)cc2)CC1` (racemic) [rac-KET, ketoconazole], the IC50 [1] was 31.1 ± 3.7 µM and the “formation of AhR-ARNT-DRE complex, % of TCDD effects” value (AhR; TCDD 10 nM) was “approx. 60%”.
For `CC(=O)N1CCN(c2ccc(OC[C@H]3CO[C@](Cn4ccnc4)(c4ccc(Cl)cc4Cl)O3)cc2)CC1` [(+)-KET, (2R,4S)-(+)-KET], the IC50 [1] was 22.3 ± 6.3 µM and the “transformation of AhR to DNA binding form (in words)” value (AhR) was “only weakly transformed”.
